What was measured:
CB1 receptor = CB1 receptor (Homo sapiens, UniProt P21554); conditions: Meschler et al. 2000; cited from earlier work
[1] = target: T1, human cannabinoid CB1 receptor (Homo sapiens, UniProt P21554); assay: biochemical; format: binding; set-up: expressed in transfected cells; host or cells: Chinese hamster ovary (CHO) cells, membrane preparation; conditions: hCB1 pKi, [3H]CP-55,940 radioligand; CHO cell membranes stably transfected with human CB1
Procedure: After incubation of a freshly prepared cell membrane preparation with the [^3H]-ligand, with or without addition of compounds of the invention, separation of bound and free ligand was performed by filtration over glassfiber filters. Radioactivity on the filter was measured by liquid scintillation counting.

[2] = target: T1, human cannabinoid CB1 receptor; assay: Cannabinoid CB1 antagonistic activity, forskolin-induced cAMP accumulation in CHO cells; format: cell-based; set-up: expressed in transfected cells; host or cells: CHO cells; conditions: antagonism of CB1 agonist (e.g. CP-55,940 or (R)-WIN-55,212-2) effect on forskolin-induced cAMP accumulation, CHO cells expressing human CB1; for Kb: read-out: hCB1 pA2 (converted)
Procedure: The cannabinoid CB1 antagonistic activity of compounds of the invention was determined by functional studies using CHO cells in which human cannabinoid CB1 receptors were stably expressed. Adenylyl cyclase was stimulated using forskolin and measured by quantifying the amount of accumulated cyclic AMP. Concomitant activation of CB1 receptors by CB1 receptor agonists (e.g. CP-55,940 or (R)-WIN-55,212–2) can attenuate the forskolin-induced accumulation of cAMP in a concentration-dependent manner. This CB1 receptor-mediated response can be antagonized by CB1 receptor antagonists such as the compounds of the invention.

T1 sequence (P21554 whole entry): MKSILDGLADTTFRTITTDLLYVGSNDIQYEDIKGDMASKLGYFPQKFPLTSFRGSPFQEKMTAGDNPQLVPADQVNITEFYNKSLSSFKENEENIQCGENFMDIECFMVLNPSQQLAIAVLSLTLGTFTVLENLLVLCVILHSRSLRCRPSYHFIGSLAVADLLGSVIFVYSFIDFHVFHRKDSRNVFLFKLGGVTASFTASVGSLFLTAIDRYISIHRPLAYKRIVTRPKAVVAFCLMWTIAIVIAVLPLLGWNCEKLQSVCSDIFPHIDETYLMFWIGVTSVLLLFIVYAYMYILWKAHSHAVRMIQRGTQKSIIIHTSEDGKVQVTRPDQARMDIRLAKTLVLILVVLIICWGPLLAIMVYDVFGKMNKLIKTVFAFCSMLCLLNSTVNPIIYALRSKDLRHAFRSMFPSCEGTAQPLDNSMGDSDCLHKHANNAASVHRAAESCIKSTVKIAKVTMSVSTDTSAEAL
CB1 receptor, sequence (P21554 whole entry): as above

Compound | CB1 receptor subtype selectivity compared with SR141716A (CB1 receptor) | potency compared with SR141716A (CB1 receptor) | Ki [1] [nM] | melting point | Kb [2] [nM] | hCB1 pA2 [2]
COc1ccc(-c2c(C#N)c(C(=O)Nc3ccccc3)nn2-c2ccccc2Cl)cc1 [CP-272871] | less CB1 receptor subtype-selective | less potent | – | – | – | –
Cc1c(C(=O)NC2CC3CCC2C3)nc(-c2ccc(Cl)cc2Cl)n1-c1ccc(Cl)cc1 (stereo not drawn) [Example 84, N-(Exo-bicyclo[2.2.1]hept-2-yl)-1-(4-chlorophenyl)-2-(2,4-dichlorophenyl)-5-methyl-1H-imidazole-4-carboxamide] | – | – | 15.8 | 194 to 195 °C | 1.26 | –
Cc1c(C(=O)N[C@H]2CC[C@H](O)CC2)nc(-c2ccc(Cl)cc2Cl)n1-c1ccc(Cl)cc1 [Example 86, 1-(4-Chlorophenyl)-2-(2,4-dichlorophenyl)-N-(trans-4-hydroxycyclohexyl)-5-methyl-1H-imidazole-4-carboxamide] | – | – | 126 | 160 °C (dec.) | 15.8 | –
Cc1c(C(=O)NN2CCCCCC2)nc(-c2ccc(Cl)cc2Cl)n1-c1ccc(Cl)cc1 [Example 92, N-(Azepan-1-yl)-1-(4-chlorophenyl)-2-(2,4-dichlorophenyl)-5-methyl-1H-imidazole-4-carboxamide] | – | – | 63.1 | 147 to 149 °C | 1.58 | –
Cc1c(C(=O)NN2CCCC2)nc(-c2ccc(Cl)cc2Cl)n1-c1ccc(Cl)cc1 [Example 93, 1-(4-Chlorophenyl)-2-(2,4-dichlorophenyl)-5-methyl-N-(pyrrolidin-1-yl)-1H-imidazole-4-carboxamide] | – | – | 20 | 205 to 206 °C | – | 8.2
Cc1c(C(=O)NN2CCOCC2)nc(-c2ccc(Cl)cc2Cl)n1-c1ccc(Cl)cc1 [Example 94, 1-(4-Chlorophenyl)-2-(2,4-dichlorophenyl)-5-methyl-N-(morpholin-4-yl)-1H-imidazole-4-carboxamide] | – | – | 100 | 225 °C (dec.) | – | 7.5
Cc1c(C(=O)NCc2ccc(C(F)(F)F)cc2)nc(-c2ccc(Cl)cc2Cl)n1-c1ccc(Cl)cc1 [Example 106, 1-(4-Chlorophenyl)-2-(2,4-dichlorophenyl)-5-methyl-N-(4-(trifluoromethyl)benzyl)-1H-imidazole-4-carboxamide] | – | – | 100 | 232 °C | – | 8.9
Cc1c(C(=O)NC2CCCC2)nc(-c2ccc(Cl)cc2Cl)n1-c1ccc(Cl)cc1 [Example 107, 1-(4-Chlorophenyl)-N-cyclopentyl-2-(2,4-dichlorophenyl)-5-methyl-1H-imidazole-4-carboxamide] | – | – | 158 | 172 °C | – | 8.9
Cc1c(C(=O)NC2CCCCCC2)nc(-c2ccc(Cl)cc2Cl)n1-c1ccc(Cl)cc1 [Example 108, 1-(4-Chlorophenyl)-N-cycloheptyl-2-(2,4-dichlorophenyl)-5-methyl-1H-imidazole-4-carboxamide] | – | – | 7.94 | 154 to 156 °C | – | 9.1
O=C(NN1CCCCC1)c1nc(-c2ccc(Cl)cc2Cl)n(-c2ccc(Cl)cc2)c1I [Example 111, 1-(4-Chlorophenyl)-2-(2,4-dichlorophenyl)-5-iodo-N-(piperidin-1-yl)-1H-imidazole-4-carboxamide] | – | – | 6.31 | 196 to 201 °C | 2.51 | –
O=C(NN1CCCCC1)c1nc(-c2ccc(Cl)cc2Cl)n(-c2ccc(Cl)cc2)c1Br [Example 117, 1-(4-chlorophenyl)-2-(2,4-dichlorophenyl)-5-bromo-N-(piperidin-1-yl)-1H-imidazole-4-carboxamide] | – | – | 10 | 181.5 to 183 °C | 2.51 | –
CS(=O)(=O)c1c(C(=O)NN2CCCCC2)nc(-c2ccc(Cl)cc2Cl)n1-c1ccc(Cl)cc1 [Example 118, 1-(4-Chlorophenyl)-2-(2,4-dichlorophenyl)-5-methylsulfonyl-N-(piperidin-1-yl)-1H-imidazole-4-carboxamide] | – | – | 15.8 | 181 to 185 °C (dec.) | – | 8.5
CSc1c(C(=O)NN2CCCCC2)nc(-c2ccc(Cl)cc2Cl)n1-c1ccc(Cl)cc1 [Example 120, 1-(4-Chlorophenyl)-2-(2,4-dichlorophenyl)-5-methylsulfanyl-N-(piperidin-1-yl)-1H-imidazole-4-carboxamide] | – | – | 12.6 | 170 °C (dec.) | 0.631 | –

From US7109216B2 (priority 2001, dated 2006)
